# From patent US20130034594A1, “FIBERS CONTAINING FERRATES AND METHODS” (BATTELLE MEMORIAL INSTITUTE, priority 2010, published 2013)
# Tests used:
# [1] = Thermal stability of sodium ferrate(VI) (temperature limit); assay type: physicochemical
# Excerpt: The ferrate fiber of the present invention can disperse the ferrate formulation mentioned above into one or more suitable polymers to produce the ferrate fiber. Broadly, a formulation of the ferrate is mixed/blended with at least one nonaqueous polymer, and then the mixture can be dispersed and cooled to solidify into the fiber of the present invention. The nonaqueous polymer is defined above. A conventional extrusion method can be used to co-extrude/disperse the ferrate/polymer mixture. Preferably, the polymer is in a liquid form before blending with the ferrate formulation. The polymer can be melted into a liquid polymer before blending. The ferrate is highly oxidative so it is normally not placed in contact with any high temperature organic polymer, nor is it co-extruded/dispersed with other polymers under a relatively high temperature using a conventional extrusion method. Such blending and co-extrusion might decompose the ferrate prematurely. […] Most suitable polymers can melt at a much lower temperature. Therefore, the ferrate(VI) can be blended and then co-extruded/dispersed with one or more melted liquid polymers without causing the ferrate to decompose prematurely even using a relatively vigorous conventional extrusion method.
# [2] = Thermal storage stability under Army Regulation (AR) 70-38 test conditions; assay type: physicochemical
# Experimental: Unexpectedly, unlike all peroxide materials, we found potassium ferrate(VI) to be thermally stable as defined by Army Regulation (AR) 70-38 test conditions. Therefore potassium ferrate(VI) was determined to be stable to storage for long periods, at least 98 days at 71° C., and at least 82 days under conditions of cycling daily from 23° C. to 71° C. and back again. […] In these tests, losses with time varied slightly with test vials ranging from <1% to 10% (±3%) loss respectively after the test periods given.
stable up to (temperature) [1],"stable to storage (time) ([2]; at 71° C., pure (80-100% analytical grade) or moderate purity (50-80% technical grade))","stable to storage (time) ([2]; cycling daily from 23° C. to 71° C. and back again, pure or technical grade)",Molecule,estimated storage stability ([2]; estimated from the AR 70-38 results)
up to 270 °C,,,[Na+].[Na+].[O]=[Fe](=[O])([O-])[O-] [sodium ferrate(VI)],
,at least 98 days,at least 82 days,potassium ferrate(VI),sufficiently stable for several years of storage
